Data reported in patent publication US6462037B1, “1,4-benzodiazepin-2-ones useful as HIV reverse transcriptase inhibitors” (Bristol-Myers Squibb Pharma Company, priority 1999, dated 2002).

| SMILES | melting point |
| --- | --- |
| COc1cccc(OC)c1CN1CC(=O)Nc2ccc(Cl)cc2C1C(F)(F)F (stereo not shown) [compound 143, 7-Chloro-4-(2,6-dimethoxybenzyl)-1,5-dihydro-5-(trifluoromethyl)-1,4-benzodiazepin-2-one] | 128 to 129 °C |
| COc1ccc(OC)c(CN2CC(=O)Nc3ccc(Cl)cc3C2C(F)(F)F)c1 (stereo not shown) [compound 144, 7-Chloro-4-(2,5-dimethoxybenzyl)-1,5-dihydro-5-(trifluoromethyl)-1,4-benzodiazepin-2-one] | 182 to 183 °C |
| COc1ccc(OC)c(CN2CC(=O)Nc3ccc(Cl)cc3C2C(F)(F)F)c1F (stereo not shown) [compound 145, 7-Chloro-4-(2,5-dimethoxy-6-fluorobenzyl)-1,5-dihydro-5-(trifluoromethyl)-1,4-benzodiazepin-2-one] | 121 to 122 °C |
| COc1cccc(F)c1CN1CC(=O)Nc2ccc(Cl)cc2C1C(F)(F)F (stereo not shown) [compound 146, 7-Chloro-4-(2-methoxy-6-fluorobenzyl)-1,5-dihydro-5-(trifluoromethyl)-1,4-benzodiazepin-2-one] | 107 to 108 °C |
| O=C1CN(Cc2cccc(F)c2F)C(C(F)(F)F)c2cc(Cl)ccc2N1 (stereo not shown) [compound 147, 7-Chloro-4-(2,3-difluorobenzyl)-1,5-dihydro-5-(trifluoromethyl)-1,4-benzodiazepin-2-one] | 182 to 183 °C |
| O=C1CN(Cc2cc(F)ccc2F)C(C(F)(F)F)c2cc(Cl)ccc2N1 (stereo not shown) [compound 148, 7-Chloro-4-(2,5-difluorobenzyl)-1,5-dihydro-5-(trifluoromethyl)-1,4-benzodiazepin-2-one] | 134 to 135 °C |
| CCC#CCN1CC(=O)Nc2ccc(Cl)cc2C1C(F)(F)F (stereo not shown) [compound 149, 7-Chloro-4-(2-pentynyl)-1,5-dihydro-5-(trifluoromethyl)-1,4-benzodiazepin-2-one] | 123 to 124 °C |
| O=C1CN(Cc2cc(Br)cs2)C(C(F)(F)F)c2cc(Cl)ccc2N1 (stereo not shown) [compound 150, 7-Chloro-4-(4-bromothien-2-ylmethyl)-1,5-dihydro-5-(trifluoromethyl)-1,4-benzodiazepin-2-one] | 173 to 174 °C |
| CC(C)CCN1CC(=O)Nc2ccc(Cl)cc2C1C(F)(F)F (stereo not shown) [compound 151, 7-Chloro-4-(3-methylbutyl)-1,5-dihydro-5-(trifluoromethyl)-1,4-benzodiazepin-2-one] | 68 to 70 °C |
| C=CCCCN1CC(=O)Nc2ccc(Cl)cc2C1C(F)(F)F (stereo not shown) [compound 152, 7-Chloro-4-(4-penten-1-yl)-1,5-dihydro-5-(trifluoromethyl)-1,4-benzodiazepin-2-one] | 86 to 87 °C |
| CCC=CCN1CC(=O)Nc2ccc(Cl)cc2C1C(F)(F)F (stereo not shown) [compound 153, 7-Chloro-4-(2-penten-1-yl)-1,5-dihydro-5-(trifluoromethyl)-1,4-benzodiazepin-2-one] | 83 to 84 °C |
| O=C1CN(CC#Cc2ccccc2)C(C(F)(F)F)c2cc(Cl)ccc2N1 (stereo not shown) [compound 154, 7-Chloro-4-(3-phenyl-2-propynyl)-1,5-dihydro-5-(trifluoromethyl)-1,4-benzodiazepin-2-one] | 138 to 139 °C |
| COc1ccc(F)c(F)c1CN1CC(=O)Nc2ccc(Cl)cc2C1C(F)(F)F (stereo not shown) [compound 157, 7-Chloro-4-(2,3-difluoro-6-methoxybenzyl)-1,5-dihydro-5-(trifluoromethyl)-1,4-benzodiazepin-2-one] | 170 to 171 °C |
| COc1cccc(F)c1CN1CC(=O)Nc2ccc(Cl)cc2C1C(F)(F)F (stereo not shown) [compound 158, 7-Chloro-4-(2-fluoro-6-methoxybenzyl)-1,5-dihydro-5-(trifluoromethyl)-1,4-benzodiazepin-2-one] | 156 to 157 °C |
| CCCCC1(C(F)(F)F)c2cc(Cl)ccc2NC(=O)CN1c1ccccc1 (stereo not shown) [compound 159, 7-Chloro-4-phenyl-5-butyl-1,5-dihydro-5-(trifluoromethyl)-1,4-benzodiazepin-2-one] | 177 to 178 °C |
| CCC#CCN1CC(=O)Nc2ccc(Cl)cc2C1C(F)(F)F (stereo not shown) [compound 160, 7-Chloro-4-(2-pentynyl)-1,5-dihydro-5-(trifluoromethyl)-1,4-benzodiazepin-2-one] | 114 to 115 °C |
| O=C1CN(c2ccccc2)C(C(F)(F)F)c2cc(Cl)ccc2N1 (stereo not shown) [compound 164, 7-Chloro-4-phenyl-1,5-dihydro-5-(trifluoromethyl)-1,4-benzodiazepin-2-one] | 187 to 188 °C |
| C#CCN1CC(=O)Nc2ccc(Cl)cc2C1C(F)(F)F (stereo not shown) [compound 165, 7-Chloro-4-(2-propynyl)-1,5-dihydro-5-(trifluoromethyl)-1,4-benzodiazepin-2-one] | 181 to 182 °C |
| CC#CCN1CC(=O)Nc2ccc(Cl)cc2C1C(F)(F)F (stereo not shown) [compound 166, 7-Chloro-4-(2-butynyl)-1,5-dihydro-5-(trifluoromethyl)-1,4-benzodiazepin-2-one] | 174 to 175 °C |
| O=C1C=NC(CC(=O)C2CC2)(C(F)(F)F)c2cc(Cl)ccc2N1 (stereo not shown) [compound 167, 7-Chloro-5-(2-cyclopropyl-2-ethanonyl)-1,5-dihydro-5-(trifluoromethyl)-1,4-benzodiazepin-2-one] | 148 to 149 °C |

| SMILES | melting point |
| --- | --- |
| O=C1C=NC(Cc2ccccc2)(C(F)(F)F)c2cc(Cl)ccc2N1 (stereo not shown) [compound 168, 7-Chloro-5-benzyl-1,5-dihydro-5-(trifluoromethyl)-1,4-benzodiazepin-2-one] | 160 to 161 °C |
| CC(C)CC1(C(F)(F)F)N=CC(=O)Nc2ccc(Cl)cc21 (stereo not shown) [compound 169, 7-Chloro-5-(2-methylpropyl)-1,5-dihydro-5-(trifluoromethyl)-1,4-benzodiazepin-2-one] | 118 to 119 °C |
| O=C1C=NC(CCc2ccccc2)(C(F)(F)F)c2cc(Cl)ccc2N1 (stereo not shown) [compound 170, 7-Chloro-5-(2-phenylethyl)-1,5-dihydro-5-(trifluoromethyl)-1,4-benzodiazepin-2-one] | 182 to 183 °C |
| CCCCCC1(C(F)(F)F)N=C(C)C(=O)Nc2ccc(Cl)cc21 (stereo not shown) [compound 171, 7-Chloro-3-methyl-5-(4-methylbutyl)-1,5-dihydro-5-(trifluoromethyl)-1,4-benzodiazepin-2-one] | 103 to 104 °C |
| O=C1C=N[C@](C#CC2CC2)(C(F)(F)F)c2cc(Cl)ccc2N1 [compound 174, 7-Chloro-5(S)-(cyclopropylethynyl)-1,5-dihydro-5-(trifluoromethyl)-1,4-benzodiazepin-2-one] | 104 to 105 °C |
| CN1CC(=O)Nc2ccc(Cl)cc2C1(C#CC1CC1)C(F)(F)F (stereo not shown) [compound 175, 7-Chloro-4-methyl-5-(cyclopropylethynyl)-1,5-dihydro-5-(trifluoromethyl)-1,4-benzodiazepin-2-one] | 135 to 136 °C |
| CCCCCC1(C(F)(F)F)N=C(CC(C)C)C(=O)Nc2ccc(Cl)cc21 (stereo not shown) [compound 176, 7-Chloro-3-(2-methylpropyl)-5-pentyl-1,5-dihydro-5-(trifluoromethyl)-1,4-benzodiazepin-2-one] | 94 to 95 °C |
| CCCCCC1(C(F)(F)F)N=CC(=O)Nc2ccc(Cl)cc21 (stereo not shown) [compound 179, 7-Chloro-5-pentyl-1,5-dihydro-5-(trifluoromethyl)-1,4-benzodiazepin-2-one] | 142 to 143 °C |
| Cc1cccc(F)c1CN1CC(=O)Nc2ccc(Cl)cc2C1C(F)(F)F (stereo not shown) [compound 180, 7-Chloro-4-(2-fluoro-6-methylbenzyl)-1,5-dihydro-5-(trifluoromethyl)-1,4-benzodiazepin-2-one] | 196 to 197 °C |
| CCCCCC1(C(F)(F)F)N=C(C)C(=O)Nc2ccccc21 (stereo not shown) [compound 181, 3-Methyl-5-pentyl-1,5-dihydro-5-(trifluoromethyl)-1,4-benzodiazepin-2-one] | 139 to 140 °C |
| CCC1=NC(C#CC2CC2)(C(F)(F)F)c2ccccc2NC1=O (stereo not shown) [compound 186, 3-Ethyl-5-(cyclopropylethynyl)-1,5-dihydro-5-(trifluoromethyl)-1,4-benzodiazepin-2-one] | 181 to 182 °C |
| CCCCCC1(C(F)(F)F)N=CC(=O)Nc2ccc(Cl)cc21 (stereo not shown) [compound 187, 7-Chloro-5-pentyl-1,5-dihydro-5-(trifluoromethyl)-1,4-benzodiazepin-2-one] | 153 to 155 °C |
| CC(C)CCC1(C(F)(F)F)N=CC(=O)Nc2ccc(Cl)cc21 (stereo not shown) [compound 188, 7-Chloro-5-(3-methylbutyl)-1,5-dihydro-5-(trifluoromethyl)-1,4-benzodiazepin-2-one] | 150 to 152 °C |
| CC(C)CCC1(C(F)(F)F)N=CC(=O)Nc2ccc(Cl)cc21 (stereo not shown) [compound 189, 7-Chloro-5-(3-methylbutyl)-1,5-dihydro-5-(trifluoromethyl)-1,4-benzodiazepin-2-one] | 151 to 153 °C |
| O=C1C=NC(Cc2ccccc2)(C(F)(F)F)c2cc(Cl)ccc2N1 (stereo not shown) [compound 190, 7-Chloro-5-benzyl-1,5-dihydro-5-(trifluoromethyl)-1,4-benzodiazepin-2-one] | 160 to 162 °C |
| O=C1C=NC(/C=C/C2CC2)(C(F)(F)F)c2cc(Cl)ccc2N1 (stereo not shown) [compound 191, 7-Chloro-5-(2-cyclopropyl-E-ethenyl)-1,5-dihydro-5-(trifluoromethyl)-1,4-benzodiazepin-2-one] | 150 to 153 °C |
| CCCCCCC1(C(F)(F)F)N=CC(=O)Nc2ccc(Cl)cc21 (stereo not shown) [compound 192, 7-Chloro-5-hexyl-1,5-dihydro-5-(trifluoromethyl)-1,4-benzodiazepin-2-one] | 115 to 120 °C |
| O=C1C=NC(CCC2CC2)(C(F)(F)F)c2cc(Cl)ccc2N1 (stereo not shown) [compound 193, 7-Chloro-5-(2-cyclopropylethyl)-1,5-dihydro-5-(trifluoromethyl)-1,4-benzodiazepin-2-one] | 152 to 155 °C |
| CC1=NC(CCC2CC2)(C(F)(F)F)c2cc(Cl)ccc2NC1=O (stereo not shown) [compound 194, 7-Chloro-3-methyl-5-(2-cyclopropylethyl)-1,5-dihydro-5-(trifluoromethyl)-1,4-benzodiazepin-2-one] | 146 to 148 °C |
| O=C1C=NC(C#CC2CC2)(C(F)(F)F)c2c(ccc(F)c2F)N1 (stereo not shown) [compound 195, 6,7-Difluoro-5-(2-cyclopropylethynyl)-1,5-dihydro-5-(trifluoromethyl)-1,4-benzodiazepin-2-one] | 185 to 187 °C |
